# In article PMC12362783 (Advanced Science, 2025):
# Experiments:
# MDA‐MB‐231 = experiment: Cell growth inhibition, CellTiter‐Glo (CTG); type: cell-based
# Experimental: (§1) All cells were grown in a humidified incubator at 37 °C and 5% CO2.
# (§2) […] […] Relative viability was calculated by normalizing the raw luminescence counts of the treated groups to those of the DMSO control groups. IC₅₀ values were calculated using sigmoidal dose‐response curve fitting with GraphPad Prism 9.0 software.
# MDA‐MB‐468 = experiment: Cell growth inhibition, CellTiter‐Glo (CTG); type: cell-based
# Experimental: as §1, §2
# MCF‐7 = experiment: Cell growth inhibition, CellTiter‐Glo (CTG); type: cell-based; conditions: Homo sapiens, MCF7; n = 3
# Experimental: (§3) Growth viability was determined by the CellTiter‐Glo luminescent viability assay (Promega) 5 days after drug treatment. Cell viability was measured immediately after dosing (Day 0) and after 5 days of incubation using CellTiter‐Glo (CTG, Promega, G7573). Relative viability was calculated by normalizing the raw luminescence counts of the treated groups to those of the DMSO control groups. IC₅₀ values were calculated using sigmoidal dose‐response curve fitting with GraphPad Prism 9.0 software.
# MDA‐MB‐453 = experiment: Cell growth inhibition, CellTiter‐Glo (CTG); type: cell-based; conditions: Homo sapiens, MDA-MB-453; n = 3; read-out: IC50 MAD‐MB‐453
# Experimental: as §3
# MCF‐10A = experiment: Cell growth inhibition, normal breast cell line; type: cell-based
# Experimental: as §3
# ATM = ATM (Homo sapiens, UniProt Q13315); experiment: PIKK family kinase selectivity; type: biochemical
# mTOR = mTOR (Homo sapiens, UniProt P42345); experiment: PIKK family kinase selectivity; type: biochemical; conditions: @2500 nM; read-out: mTOR inhibitory rate at certain concentration
# [1] = Preliminary safety evaluation in xenografted mice (body weight, animal loss, H&E staining of organs); type: in vivo
# Experimental: MDA‐MB‐468 cells (1 × 10^7) were implanted in the right flanks subcutaneously in female nude mice. When the implanted tumor grew to a volume of 110 mm^3, the animals were randomly divided into four groups, each group containing four animals. […] Tumor size and body weights were measured twice a week. On day 28, the mice were euthanized, tumors were harvested and weighed, and vital organs (heart, liver, spleen, lung, and kidney) were collected. Processed samples were saved for further safety evaluation.
# The tumor sample and vital organs were immersed in 4% paraformaldehyde for 4 h and transferred to 70% ethanol. Individual lobes of the sample were placed in processing cassettes, dehydrated through a serial alcohol gradient, and embedded in paraffin wax blocks. Thick tissue sections (5 µm) were dewaxed in xylene, rehydrated through decreasing concentrations of ethanol, washed in PBS, and stained with H&E. After staining, the sections were dehydrated through increasing concentrations of ethanol and xylene. Images were acquired on a fluorescent inverted microscope (Nikon DS‐Ri1).
# [2] = system: TNBC cells (MDA‐MB‐231, MDA‐MB‐468, MDA‐MB‐436); experiment: Anti‐proliferative activity across three TNBC cell lines (summary); type: cell-based; conditions: read-out: IC50 range across three TNBC cell lines
# Experimental: as §3, with “Cells were grown at 37 °C, under 95% air and 5% CO₂ until they reached about 70% confluence and were subcultured at least twice before the experiment. Cells were seeded at a density of 1000 cells/well in two 384‐well white plates, and the plates were placed in a 5% CO₂ incubator overnight. Growth” for “Growth”
# MDA‐MB‐231 cells [3] = experiment: Colony formation assay; type: cell-based; conditions: 1.0 µM, 10 days, vs AZD6738, Olaparib alone or combination
# Experimental: (§4) The colony formation assay was performed with cells seeded in 6‐well plates (10 000 cells/well). After 10 days, cells were fixed with methanol and stained with crystal violet. The number of colonies was counted. Data represent the means ± SD from 3 independent experiments performed in triplicate wells.
# MDA‐MB‐468 cells [4] = experiment: Colony formation assay; type: cell-based; conditions: 1.0 µM, 10 days, vs AZD6738, Olaparib alone or combination
# Experimental: as §4
# MDA‐MB‐231 cells [5] = experiment: Immunofluorescence of γH2AX foci; type: cell-based; conditions: 48 h, vs Olaparib, AZD6738, and their combination
# Experimental: (§5) Cells were fixed for 30 min in 4% paraformaldehyde and permeabilized for 30 min in 1% Triton X‐100 at 4 °C. After three rinses with PBS, cells were blocked for 30 min with 5% BSA and incubated with γH2AX antibody (1/1000 dilution, CST#9718) in 5% BSA overnight at 4 °C, after which they were rinsed three times with PBS and incubated with the secondary antibodies at room temperature for 1 h. Then, cells were washed with PBS three times, and the nucleus was stained with DAPI and fixed. Finally, images were visualized with the microscope and analyzed.
# MDA‐MB‐468 cells [6] = experiment: Immunofluorescence of γH2AX foci; type: cell-based; conditions: 48 h, vs Olaparib, AZD6738, and their combination
# Experimental: as §5
# [7] = system: MDA‐MB‐468 xenograft tumors; experiment: Immunohistochemistry staining of xenograft tumors; type: in vivo, mice
# Experimental: The isolated tumor tissue was fixed in 4% paraformaldehyde for 24 h, dehydrated, embedded, and sliced. After deparaffinization, Ki67 (GB121141‐50, Servicebio), γH2AX (GB111841‐50, Servicebio), CD8 (GB15068‐50, Servicebio), or Cleaved‐caspase‐3 antibody (CST#9661) were incubated at 4 °C overnight, rinsed three times with PBS, and incubated with the secondary antibody. A DAB substrate solution was applied to the slide sections to reveal the antibody staining color. The tissue slide was dehydrated four times with alcohol. The tissue slides were then cleared three times in xylene and mounted with a mounting solution. The mounted slides could be stored at room temperature indefinitely. The immunohistochemical images were obtained under the microscope (Nikon DS‐Ri1).
# [8] = 24, 48, 72 h treatment, Figure S2
# Chain of ATM (Q13315 whole entry, species assumed): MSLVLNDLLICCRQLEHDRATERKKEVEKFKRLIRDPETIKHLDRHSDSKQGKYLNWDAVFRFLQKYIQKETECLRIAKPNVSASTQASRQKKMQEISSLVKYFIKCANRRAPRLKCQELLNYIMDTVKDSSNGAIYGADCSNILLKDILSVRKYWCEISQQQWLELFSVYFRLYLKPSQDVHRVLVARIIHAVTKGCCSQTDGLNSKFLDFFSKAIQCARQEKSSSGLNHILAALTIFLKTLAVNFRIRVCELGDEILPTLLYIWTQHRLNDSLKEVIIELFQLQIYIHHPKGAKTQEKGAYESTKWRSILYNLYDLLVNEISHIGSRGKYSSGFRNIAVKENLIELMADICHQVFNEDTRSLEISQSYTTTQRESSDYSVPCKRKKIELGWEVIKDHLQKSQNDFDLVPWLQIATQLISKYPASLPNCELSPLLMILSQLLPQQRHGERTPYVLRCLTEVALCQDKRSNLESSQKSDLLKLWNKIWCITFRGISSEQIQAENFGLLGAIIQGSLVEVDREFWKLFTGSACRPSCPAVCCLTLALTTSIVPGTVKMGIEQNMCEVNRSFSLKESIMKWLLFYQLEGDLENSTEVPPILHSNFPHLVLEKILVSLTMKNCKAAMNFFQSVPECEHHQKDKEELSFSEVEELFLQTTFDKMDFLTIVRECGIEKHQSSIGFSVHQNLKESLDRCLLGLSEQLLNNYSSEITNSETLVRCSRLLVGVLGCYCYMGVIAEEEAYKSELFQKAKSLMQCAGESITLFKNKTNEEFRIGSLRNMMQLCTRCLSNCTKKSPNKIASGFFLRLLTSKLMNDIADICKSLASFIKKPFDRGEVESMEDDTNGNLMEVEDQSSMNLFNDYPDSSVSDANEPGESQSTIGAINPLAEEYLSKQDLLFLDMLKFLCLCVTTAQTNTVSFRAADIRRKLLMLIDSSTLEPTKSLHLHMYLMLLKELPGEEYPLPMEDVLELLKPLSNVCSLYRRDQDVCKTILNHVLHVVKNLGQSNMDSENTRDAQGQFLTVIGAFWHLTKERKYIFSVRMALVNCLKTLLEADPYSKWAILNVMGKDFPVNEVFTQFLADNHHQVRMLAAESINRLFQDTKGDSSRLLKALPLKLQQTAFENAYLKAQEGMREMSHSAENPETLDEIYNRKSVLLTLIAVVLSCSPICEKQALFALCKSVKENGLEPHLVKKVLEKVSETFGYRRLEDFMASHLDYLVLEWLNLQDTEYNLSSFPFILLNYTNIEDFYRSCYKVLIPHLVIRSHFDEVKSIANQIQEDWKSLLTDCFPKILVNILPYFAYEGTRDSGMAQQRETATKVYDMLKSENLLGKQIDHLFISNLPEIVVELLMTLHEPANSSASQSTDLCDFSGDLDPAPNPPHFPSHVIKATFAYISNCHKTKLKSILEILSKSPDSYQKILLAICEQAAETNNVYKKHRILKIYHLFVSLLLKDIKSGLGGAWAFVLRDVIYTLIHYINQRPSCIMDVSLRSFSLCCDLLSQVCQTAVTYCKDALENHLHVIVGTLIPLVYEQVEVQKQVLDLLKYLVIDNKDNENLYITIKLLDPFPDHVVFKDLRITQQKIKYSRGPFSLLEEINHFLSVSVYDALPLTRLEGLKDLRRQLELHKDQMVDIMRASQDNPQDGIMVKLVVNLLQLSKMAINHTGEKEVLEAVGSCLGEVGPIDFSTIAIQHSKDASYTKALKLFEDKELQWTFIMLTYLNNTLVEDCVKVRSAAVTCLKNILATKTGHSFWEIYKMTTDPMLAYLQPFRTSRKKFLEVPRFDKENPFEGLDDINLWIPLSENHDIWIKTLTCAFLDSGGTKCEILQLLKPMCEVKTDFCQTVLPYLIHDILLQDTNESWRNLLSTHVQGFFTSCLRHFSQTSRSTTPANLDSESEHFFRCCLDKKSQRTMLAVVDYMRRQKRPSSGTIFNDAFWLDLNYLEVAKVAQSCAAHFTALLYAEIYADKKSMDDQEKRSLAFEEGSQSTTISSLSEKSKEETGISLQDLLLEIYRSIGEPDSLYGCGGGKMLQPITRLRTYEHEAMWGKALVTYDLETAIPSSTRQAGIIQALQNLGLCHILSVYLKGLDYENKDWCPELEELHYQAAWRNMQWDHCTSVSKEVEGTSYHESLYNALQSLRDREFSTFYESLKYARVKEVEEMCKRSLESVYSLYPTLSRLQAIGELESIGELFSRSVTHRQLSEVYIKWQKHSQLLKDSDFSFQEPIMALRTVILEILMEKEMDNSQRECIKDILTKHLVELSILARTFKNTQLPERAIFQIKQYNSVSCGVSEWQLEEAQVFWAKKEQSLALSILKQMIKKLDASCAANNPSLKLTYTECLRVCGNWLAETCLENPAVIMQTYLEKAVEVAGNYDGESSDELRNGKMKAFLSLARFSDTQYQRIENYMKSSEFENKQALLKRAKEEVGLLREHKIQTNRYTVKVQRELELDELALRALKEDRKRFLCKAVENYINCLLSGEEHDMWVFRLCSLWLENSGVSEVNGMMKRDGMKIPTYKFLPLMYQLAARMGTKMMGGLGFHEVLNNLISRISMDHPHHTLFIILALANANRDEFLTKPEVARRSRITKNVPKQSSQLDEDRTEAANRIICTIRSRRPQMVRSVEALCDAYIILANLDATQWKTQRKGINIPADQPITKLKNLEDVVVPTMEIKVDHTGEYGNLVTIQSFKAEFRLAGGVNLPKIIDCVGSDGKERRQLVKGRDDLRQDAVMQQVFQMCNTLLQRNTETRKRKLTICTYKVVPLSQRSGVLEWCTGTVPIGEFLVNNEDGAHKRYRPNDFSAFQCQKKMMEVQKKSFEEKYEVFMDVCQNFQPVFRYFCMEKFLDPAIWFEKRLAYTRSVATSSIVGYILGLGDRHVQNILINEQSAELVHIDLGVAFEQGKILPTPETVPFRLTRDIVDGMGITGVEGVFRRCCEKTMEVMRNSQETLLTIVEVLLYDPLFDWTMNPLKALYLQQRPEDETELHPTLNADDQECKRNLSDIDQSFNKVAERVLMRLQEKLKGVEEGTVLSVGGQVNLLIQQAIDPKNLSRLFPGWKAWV
compound,measurement,setting,value
"C[C@@H]1COCCN1c1cc(CNC(=O)c2ccc(C(=O)N3CCN(C(=O)c4cc(Cc5n[nH]c(=O)c6ccccc56)ccc4F)CC3)cc2)nc(-c2ccnc3[nH]ccc23)n1 [Compound B8, (R)‐4‐(4‐(2‐fluoro‐5‐((4‐oxo‐3,4‐dihydrophthalazin‐1‐yl)methyl)benzoyl)piperazine‐1‐carbonyl)‐N‐((6‐(3‐methylmorpholino)‐2‐(1H‐pyrrolo[2,3‐b]pyridin‐4‐yl)pyrimidin‐4‐yl)methyl) benzamide]",anti‐proliferation effect at different time points,MDA‐MB‐231; [8],exerted anti‐proliferation activity
same,IC50,"MDA‐MB‐231; Homo sapiens, MDA-MB-231, 120 h, read-out: IC50 MDA‐MB‐231, CTG, 5 days, n = 3",1890 ± 130 nM
same,anti‐proliferation effect at different time points,MDA‐MB‐468; [8],exerted anti‐proliferation activity
same,IC50,"MDA‐MB‐468; Homo sapiens, MDA-MB-468, 120 h, CTG, 5 days, n = 3",320 ± 10 nM
same,IC50,MCF‐7,970 ± 90 nM
same,IC50,MDA‐MB‐453,1080 ± 30 nM
same,inhibition at 30 µM,"MCF‐10A; Homo sapiens, MCF-10A, @30 µM, read-out: MCF‐10A inhibitory rate at certain concentration",17%
same,inhibitory activity against normal cells,MCF‐10A; MCF‐10A,minimal inhibitory activity against normal cells
same,IC50,ATM,> 5 µM
same,inhibition at […],mTOR,10.3%
same,effect on body weight,"[1]; B8 25 and 50 mg/kg I.P., 28 days, nude mice",no significant effect on body weight
same,"H&E staining of heart, liver, spleen, lungs, and kidneys",[1]; after 28 days of continuous administration,did not cause significant changes in organ structure or cellular morphology
same,IC50,[2],9 to 1890 nM
same,colony formation rate,MDA‐MB‐231 cells [3],significantly greater inhibitory effect on the colony formation rate
same,colony formation rate,MDA‐MB‐468 cells [4],significantly greater inhibitory effect on the colony formation rate
same,γH2AX foci formation,MDA‐MB‐231 cells [5],significantly increased the formation of γH2AX foci
same,γH2AX foci formation,MDA‐MB‐468 cells [6],significantly increased the formation of γH2AX foci
same,CD8 expression in tumor tissues (IHC),[7],increased the levels of CD8 expression
same,"Ki67, γH2AX and cleaved‐caspase 3 expression in tumors (IHC)",[7],decreased Ki67 expression and increased γH2AX and cleaved‐caspase 3 expression
